Experimental data: patent US20240287074A1, “SALTS AND CRYSTALS” (Kinoxis Therapeutics Pty Ltd, priority 2020, published 2024)
Structures can show the parent of a compound that is named as a salt. Where two headings read alike, the source gives them in different places. Marks after values point to notes of the source that are not given here.

Key:
[1] = Dynamic / gravimetric vapour sorption (DVS/GVS) hygroscopicity; assay type: physicochemical
Protocol: Approximately, 10-20 mg of sample was placed into a mesh vapour sorption balance pan and loaded into a DVS Intrinsic dynamic vapour sorption balance by Surface Measurement Systems. The sample was subjected to a ramping profile from 40-90% relative humidity (RH) at 10% increments, maintaining the sample at each step until a stable weight had been achieved (dm/dt 0.004%, minimum step length 30 minutes, maximum step length 500 minutes) at 25° C. After completion of the sorption cycle, the sample was dried using the same procedure to 0% RH and then a second sorption cycle back to 40% RH. Two cycles were performed. The weight change during the sorption/desorption cycles were plotted, allowing for the hygroscopic nature of the sample to be determined. XRPD analysis was then carried out on any solid retained.
Approximately 10-20 mg of sample was placed into a mesh vapour sorption balance pan and loaded into an IGASorp Moisture Sorption Analyser balance by Hiden Analytical. The sample was subjected to a ramping profile from 40-90% relative humidity (RH) at 10% increments, maintaining the sample at each step until a stable weight had been achieved (98% step completion, minimum step length 30 minutes, maximum step length 60 minutes) at 25° C. After completion of the sorption cycle, the sample was dried using the same procedure to 0% RH, and finally taken back to the starting point of 40% RH. Two cycles were performed. The weight change during the sorption/desorption cycles were plotted, allowing for the hygroscopic nature of the sample to be determined.

[2] = Oral pharmacokinetics in rats; assay type: in vivo; settings: for Plasma AUC0-inf/Dose / Plasma Cmax/Dose: dose-normalised; for Plasma AUC0-inf/Dose / Plasma Cmax/Dose / BA % / % Dose in urine: male Sprague Dawley rats; for Plasma AUC0-inf/Dose / Plasma Cmax/Dose / % Dose in urine: dihydrochloride; for BA % / % Dose in urine / Cmax / half-life / AUC(0-inf) / Tmax: 5 mg/kg target dose (freebase equivalent), 5 mg/kg; for BA % / Cmax / half-life / AUC(0-inf) / Tmax: mean ± SD; for BA %: n = 3, dihydrochloride; for % Dose in urine: urine up to 24 h; for Cmax / half-life / AUC(0-inf) / Tmax: male, Sprague Dawley, rat, plasma, po; for Cmax: n = 3; for half-life: n = 3, read-out: Apparent t1/2 (converted); for AUC(0-inf): n = 3, read-out: Plasma AUC0-inf; for Tmax: n = 3, read-out: Tmax
Protocol: N=3 rats were run in each of the four conditions: • (1) Di-HCL salt in saline • (2) Di-HCL salt in methocel • (3) Phosphate form 1 in saline • (4) Phosphate form 1 in methocel
On the day of dosing the solid compounds were dissolved in either Saline (0.9%) or 0.5% hydroxypropyl methylcellulose (Methocel E3 Premium LV) in Milli-Q water. The formulations were then thoroughly vortexed to produce colourless solutions.
Overnight-fasted rats with adlibitum access to water were administered their dose of the various forms of the compound of the invention via oral gavage (PO) at a dose volume of 3 ml/kg and a dose of 5 mg/kg freebase equivalent. Food access was re-instated 4 hours (h) post-dose. Samples of arterial blood were collected up to 24 h post-dose. After collection, samples were centrifuged, plasma was removed and stored frozen at −80° C. before being analysed by LC-MS. Urine samples were collected at pre, 0-4 h, 4-7 h and 7-24 h post-dose and were analysed by LC-MS following extraction.

[3] = test system: C57BL/6 mouse model of opioid withdrawal; experiment: Naloxone precipitated oxycodone withdrawal-induced jumping; assay type: in vivo; settings: 7.3 mg/kg FBE i.p., C57BL/6 mice, 30 min session, vs OXY_VEH
Protocol: Two cohorts of adult male C57BL/6 mice were run assessing the effects of 7.3 mg/kg freebase equivalent (FBE) IP of the compound of the invention in the dihydrochloride salt form (CMPD1-2HCL) and the phosphate form 1 (CMPD1-PO4) on naloxone precipitated withdrawal-induced jumping.
The first cohort of mice (N=30) were split into the following conditions: • (1) Vehicle, 0 mg/kg (n=10); • (2) oxycodone, 0 mg/kg compound of the invention FBE in 2HCL salt form (n=10); • (3) oxycodone, 7.3 mg/kg compound of the invention FBE in 2HCL salt form (n=10).
The second cohort of mice (N=24) were split into the following conditions: • (1) Vehicle, 0 mg/kg (n=8); • (2) oxycodone, 0 mg/kg compound of the invention FBE in PO4 salt form (n=8); • (3) oxycodone, 7.3 mg/kg compound of the invention FBE in PO4 salt form (n=8).
Mice in the oxycodone conditions received i.p. injections of oxycodone for 5 days according to the schedule and doses set out in Table 8. The morning and afternoon doses were separated by 7 h. Mice in the vehicle condition received injections of vehicle saline instead of oxycodone. […]
Testing involved placing mice individually into a 20 (I)×20 (w)×30 (h) cm arena for 30 min. […] Number of jumps were scored from the videos by an experienced experimenter blind to conditions.
Data were analysed by SPSS using oneway ANOVA and planned contrasts.

[4] = test system: orthosteric vasopressin receptor binding sites; settings: cited from earlier work
[5] = target: T1, orthosteric oxytocin receptor binding sites (Homo sapiens, UniProt P30559); settings: cited from earlier work
T1 sequence (P30559 1-389): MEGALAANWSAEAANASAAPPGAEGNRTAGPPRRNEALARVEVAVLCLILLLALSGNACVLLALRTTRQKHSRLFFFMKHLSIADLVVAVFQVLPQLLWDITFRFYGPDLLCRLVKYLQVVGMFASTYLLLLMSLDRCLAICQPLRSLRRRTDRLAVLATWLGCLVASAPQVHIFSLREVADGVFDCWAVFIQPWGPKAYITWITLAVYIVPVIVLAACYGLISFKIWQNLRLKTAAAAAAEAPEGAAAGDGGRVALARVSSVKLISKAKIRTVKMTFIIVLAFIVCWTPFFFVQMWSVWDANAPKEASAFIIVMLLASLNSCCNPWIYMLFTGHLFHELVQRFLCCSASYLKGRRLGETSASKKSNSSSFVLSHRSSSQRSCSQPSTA

## Cn1ncc2c1Nc1ccccc1NC2 [Di-hydrochloride salt, 1-Methyl-1,4,5,10-tetrahydropyrazolo[3,4-b][1,5]benzodiazepine dihydrochloride]
[1]
  relative humidity above which form change is indicated by DVS: above 60 % RH
  relative humidity below which the weight change is reversible (DVS): below 30 % RH
[1]; DVS, 25° C., dihydrochloride
  hygroscopicity: high hygroscopicity
[2]; Methocel
  Plasma AUC0-inf/Dose: 0.91 ± 0.12 (μg*h/mL)/(mg/kg)
  Plasma Cmax/Dose: 0.40 ± 0.02 (μg/mL)/(mg/kg)
  BA %: 98.9 ± 13^b %
  % Dose in urine: 0.224 ± 0.14%
  Cmax: 1800 ± 110 ng/mL
  half-life: 40.8 ± 12 min
  AUC(0-inf): 4100 ± 520 ng·h/mL
  Tmax: 19.8 ± 6 min
[2]; Saline
  Plasma AUC0-inf/Dose: 1.14 ± 0.12 (μg*h/mL)/(mg/kg)
  Plasma Cmax/Dose: 0.61 ± 0.29 (μg/mL)/(mg/kg)
  BA %: 124 ± 13%
  % Dose in urine: 0.184 ± 0.059%
  Cmax: 2930 ± 1360 ng/mL
  half-life: 41.4 ± 6 min
  AUC(0-inf): 5460 ± 540 ng·h/mL
  Tmax: 45 ± 24 min
[3]
  oxycodone withdrawal-induced jumping: significantly inhibited
[4]
  binding affinity for the orthosteric vasopressin receptor binding sites: without demonstrating significant binding affinity
[5]
  binding affinity for the orthosteric oxytocin receptor binding sites: without demonstrating significant binding affinity
